US8993586B2, “N1/N2-lactam acetyl-CoA carboxylase inhibitors” (Pfizer Inc., priority 2010, dated 2015)

Tests used:
[1] = molecular target: recombinant human ACC1 (rhACC1) (Homo sapiens (Human), UniProt Q13085); assay: recombinant hACC1 Transcreener ADP detection FP assay; type: biochemical; conditions: 50 μM ATP, 120 min at 25° C.
Procedure: (§1) For example direct inhibition of ACC activity, for the compound of Formula (I) was determined using preparations of recombinant human ACC1 (rhACC1) and recombinant human ACC2 (rhACC2).
[1] Preparation of rhACC1. Two liters of SF9 cells, infected with recombinant baculovirus containing full length human ACC1 cDNA, were suspended in ice-cold lysis buffer (25 mM Tris, pH 7.5; 150 mM NaCl; 10% glycerol; 5 mM imidazole (EMD Bioscience; Gibbstown, N.J.); 2 mM TCEP (BioVectra; Charlottetown, Canada); Benzonase nuclease (10000 U/100 g cell paste; Novagen; Madison, Wis.); EDTA-free protease inhibitor cocktail (1 tab/50 mL; Roche Diagnostics; Mannheim, Germany). Cells were lysed by 3 cycles of freeze-thaw and centrifuged at 40,000×g for 40 minutes (4° C.). Supernatant was directly loaded onto a HisTrap FF crude column (GE Healthcare; Piscataway, N.J.) and eluted with an imidazole gradient up to 0.5 M over 20 column volumes (CV). ACC1-containing fractions were pooled and diluted 1:5 with 25 mM Tris, pH 7.5, 2 mM TCEP, 10% glycerol and direct loaded onto a CaptoQ (GE Healthcare) column and eluted with an NaCl gradient up to 1 M over 20 CV's. Phosphate groups were removed from purified ACC1 by incubation with lambda phosphatase (100 U/10 μM target protein; New England Biolabs; Beverly, Mass.) for 14 hours at 4° C.; okadaic acid was added (1 μM final concentration; Roche Diagnostics) to inhibit the phosphatase. Purified ACC1 was exchanged into 25 mM Tris, pH 7.5, 2 mM TCEP, 10% glycerol, 0.5 M NaCl by 6 hour dialysis at 4° C. Aliquots were prepared and frozen at −80° C.
[2] Measurement of rhACC1 inhibition. hACC1 was assayed in a Costar #3676 (Costar, Cambridge, Mass.) 384-well plate using the Transcreener ADP detection FP assay kit (Bellbrook Labs, Madison, Wis.) using the manufacturer's recommended conditions for a 50 μM ATP reaction. The final conditions for the assay were 50 mM HEPES, pH 7.2, 10 mM MgCl2, 7.5 mM tripotassium citrate, 2 mM DTT, 0.1 mg/mL BSA, 30 μM acetyl-CoA, 50 μM ATP, and 10 mM KHCO3 Typically, a 10 μl reaction was run for 120 min at 25° C., and 10 μl of Transcreener stop and detect buffer was added and the combination incubated at room temp for an additional 1 hour. The data was acquired on a Envision Fluorescence reader (PerkinElmer) using a 620 excitation Cy5 FP general dual mirror, 620 excitation Cy5 FP filter, 688 emission (S) and a 688 (P) emission filter.

[2] = molecular target: recombinant human ACC2 (rhACC2) (Homo sapiens (Human), UniProt O00763); assay: recombinant hACC2 Transcreener ADP detection FP assay; type: biochemical; conditions: 50 uM ATP, 50 min at 25° C.
recombinant human ACC2 (rhACC2), sequence (O00763 whole entry V2141I): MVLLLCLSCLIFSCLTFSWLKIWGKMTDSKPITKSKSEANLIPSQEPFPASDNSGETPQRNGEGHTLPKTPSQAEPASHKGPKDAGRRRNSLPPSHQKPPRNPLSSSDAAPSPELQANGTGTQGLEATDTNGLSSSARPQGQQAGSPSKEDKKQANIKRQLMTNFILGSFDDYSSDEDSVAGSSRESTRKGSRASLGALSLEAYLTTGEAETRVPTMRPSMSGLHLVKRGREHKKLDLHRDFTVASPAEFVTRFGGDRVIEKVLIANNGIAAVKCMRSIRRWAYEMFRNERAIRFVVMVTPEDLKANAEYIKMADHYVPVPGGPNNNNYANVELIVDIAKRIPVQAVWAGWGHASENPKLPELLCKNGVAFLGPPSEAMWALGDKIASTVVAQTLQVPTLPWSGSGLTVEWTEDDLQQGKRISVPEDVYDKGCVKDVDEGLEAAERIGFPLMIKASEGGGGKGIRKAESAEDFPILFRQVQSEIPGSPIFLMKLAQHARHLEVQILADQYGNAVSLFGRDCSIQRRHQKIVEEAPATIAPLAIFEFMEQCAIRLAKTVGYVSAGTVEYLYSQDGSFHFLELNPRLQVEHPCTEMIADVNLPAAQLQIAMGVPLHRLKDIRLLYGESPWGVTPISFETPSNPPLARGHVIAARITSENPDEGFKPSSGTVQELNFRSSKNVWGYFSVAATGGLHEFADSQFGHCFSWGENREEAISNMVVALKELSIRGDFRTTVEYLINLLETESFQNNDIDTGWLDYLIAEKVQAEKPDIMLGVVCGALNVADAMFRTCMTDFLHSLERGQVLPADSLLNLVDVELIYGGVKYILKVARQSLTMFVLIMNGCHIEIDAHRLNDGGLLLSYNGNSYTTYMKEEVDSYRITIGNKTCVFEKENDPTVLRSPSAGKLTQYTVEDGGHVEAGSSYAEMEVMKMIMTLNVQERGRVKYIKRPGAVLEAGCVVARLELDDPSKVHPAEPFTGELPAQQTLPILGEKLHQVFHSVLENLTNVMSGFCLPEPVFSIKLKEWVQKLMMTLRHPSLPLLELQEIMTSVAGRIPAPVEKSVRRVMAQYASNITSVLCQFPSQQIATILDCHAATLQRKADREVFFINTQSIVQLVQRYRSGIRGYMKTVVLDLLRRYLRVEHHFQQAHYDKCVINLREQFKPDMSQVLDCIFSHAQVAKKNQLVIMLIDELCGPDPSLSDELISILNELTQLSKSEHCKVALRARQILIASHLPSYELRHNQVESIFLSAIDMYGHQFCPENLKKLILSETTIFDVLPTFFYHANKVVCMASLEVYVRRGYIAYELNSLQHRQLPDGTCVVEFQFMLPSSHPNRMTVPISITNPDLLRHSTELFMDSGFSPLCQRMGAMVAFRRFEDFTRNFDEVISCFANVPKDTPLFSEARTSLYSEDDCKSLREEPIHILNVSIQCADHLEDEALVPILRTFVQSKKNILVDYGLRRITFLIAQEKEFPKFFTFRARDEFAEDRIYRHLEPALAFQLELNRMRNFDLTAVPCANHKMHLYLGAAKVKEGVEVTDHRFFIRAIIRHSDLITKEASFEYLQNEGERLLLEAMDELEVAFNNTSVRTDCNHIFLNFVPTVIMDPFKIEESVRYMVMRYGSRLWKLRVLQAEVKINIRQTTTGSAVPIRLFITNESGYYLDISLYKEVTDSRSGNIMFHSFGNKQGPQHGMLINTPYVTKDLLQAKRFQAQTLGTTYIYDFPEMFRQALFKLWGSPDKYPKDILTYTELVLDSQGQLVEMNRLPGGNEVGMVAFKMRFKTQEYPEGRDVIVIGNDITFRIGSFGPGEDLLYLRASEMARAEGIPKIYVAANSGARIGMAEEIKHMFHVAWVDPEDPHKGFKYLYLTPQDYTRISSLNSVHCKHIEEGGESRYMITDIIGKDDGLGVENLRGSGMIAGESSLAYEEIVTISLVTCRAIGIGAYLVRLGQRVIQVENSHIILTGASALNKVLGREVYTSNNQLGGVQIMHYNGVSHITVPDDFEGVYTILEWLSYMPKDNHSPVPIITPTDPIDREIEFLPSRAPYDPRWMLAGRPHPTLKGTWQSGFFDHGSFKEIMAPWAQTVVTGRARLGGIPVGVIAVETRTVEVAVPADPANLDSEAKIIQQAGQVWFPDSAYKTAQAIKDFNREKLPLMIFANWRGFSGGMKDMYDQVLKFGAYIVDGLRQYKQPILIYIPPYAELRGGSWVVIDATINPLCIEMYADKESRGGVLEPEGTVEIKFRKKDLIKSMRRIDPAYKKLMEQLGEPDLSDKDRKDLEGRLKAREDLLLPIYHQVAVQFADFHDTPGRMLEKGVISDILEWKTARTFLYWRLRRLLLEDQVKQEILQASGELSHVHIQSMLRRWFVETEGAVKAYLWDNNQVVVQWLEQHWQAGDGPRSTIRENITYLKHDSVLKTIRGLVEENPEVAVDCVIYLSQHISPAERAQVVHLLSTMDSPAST
Procedure: as §1
[3] Preparation of rhACC2. Human ACC2 inhibition was measured using purified recombinant human ACC2 (hrACC2). Briefly, a full length Cytomax clone of ACC2 was purchased from Cambridge Bioscience Limited and was sequenced and subcloned into PCDNA5 FRT TO-TOPO (Invitrogen, Carlsbad, Calif.). The ACC2 was expressed in CHO cells by tetracycline induction and harvested in 5 liters of DMEM/F12 with glutamine, biotin, hygromycin and blasticidin with 1 μg/mL tetracycline (Invitrogen, Carlsbad, Calif.). The conditioned medium containing ACC2 was then applied to a Softlink Soft Release Avidin column (Promega, Madison, Wis.) and eluted with 5 mM biotin. […] The purified ACC2 was dialyzed in 50 mM Tris, 200 mM NaCl, 4 mM DTT, 2 mM EDTA, and 5% glycerol. […] For measurement of ACC2 activity and assessment of ACC2 inhibition, test compounds were dissolved in DMSO and added to the rhACC2 enzyme as a 5× stock with a final DMSO concentration of 1%.
[4] Measurement of human ACC2 inhibition. hACC2 was assayed in a Costar #3676 (Costar, Cambridge, Mass.) 384-well plate using the Transcreener ADP detection FP assay kit (Bellbrook Labs, Madison, Wis.) using the manufacturer's recommended conditions for a 50 uM ATP reaction. The final conditions for the assay were 50 mM HEPES, pH 7.2, 5 mM MgCl2, 5 mM tripotassium citrate, 2 mM DTT, 0.1 mg/mL BSA, 30 μM acetyl-CoA, 50 μM ATP, and 8 mM KHCO3 Typically, a 10 μl reaction was run for 50 min at 25° C., and 10 μl of Transcreener stop and detect buffer was added and the combination incubated at room temp for an additional 1 hour. The data was acquired on an Envision Fluorescence reader (PerkinElmer) using a 620 excitation Cy5 FP general dual mirror, 620 excitation Cy5 FP filter, 688 emission (S) and a 688 (P) emission filter.

Row | IC50 [1] [nM] | IC50 [2] [nM] | SMILES
1 | 30 | 7.5 | COc1cccc2cc(C(=O)N3CCC4(CC3)Cc3cn(C(C)(C)C)nc3C(=O)N4)ccc12 [Example 50]
2 | 15 | 4.4 | COc1cc(C(=O)N2CCC3(CC2)Cc2cn(C(C)(C)C)nc2C(=O)N3)nc2c(OC)cccc12 [Example 51]
3 | 88 | 17 | CC(C)(C)n1cc2c(n1)C(=O)NC1(CCN(C(=O)c3ccc4cn[nH]c4c3)CC1)C2 [Example 52]
4 | 47 | 13 | CC(C)(C)n1cc2c(n1)C(=O)NC1(CCN(C(=O)c3ccc4c(C#N)n[nH]c4c3)CC1)C2 [Example 53]
5 | 21 | 5.1 | CC(C)(C)n1cc2c(n1)C(=O)NC1(CCN(C(=O)c3ccc4[nH]nc(C(N)=O)c4c3)CC1)C2 [Example 54]
6 | 7.4 | 1.9 | COc1ccc(C)c2[nH]c(C(=O)N3CCC4(CC3)Cc3cn(C(C)(C)C)nc3C(=O)N4)cc12 [Example 56]
7 | 149 | 12 | CC(C)(C)n1cc2c(n1)C(=O)NC1(CCN(C(=O)c3ccc4nc(N)ccc4c3)CC1)C2 [Example 58]
8 | 123 | 14 | CC(C)(C)n1cc2c(n1)C(=O)NC1(CCN(C(=O)c3ccc4cnc(N)cc4c3)CC1)C2 [Example 59]
9 | 43 | 14 | CC(C)(C)n1cc2c(n1)C(=O)NC1(CCN(C(=O)c3ccc4[nH]nc(C#N)c4c3)CC1)C2 [Example 60]
10 | 94 | 13 | CC(C)(C)n1cc2c(n1)C(=O)NC1(CCN(C(=O)c3ccc4[nH]nc(N)c4c3)CC1)C2 [Example 61]
11 | 8.4 | 2.1 | Cc1cc(C(=O)N2CCC3(CC2)Cc2cn(C(C)(C)C)nc2C(=O)N3)cc2c(Cl)n[nH]c12 [Example 62]
12 | 160 | 28 | CC(C)(C)n1cc2c(n1)C(=O)NC1(CCN(C(=O)c3ccc4ncccc4c3)CC1)C2 [Example 63]
13 | 256 | 56 | CC(C)(C)n1cc2c(n1)C(=O)NC1(CCN(C(=O)c3ccc4c(N)n[nH]c4c3)CC1)C2 [Example 65]
14 | 17 | 2.4 | COc1cc(C(=O)N2CCC3(CC2)Cc2cn(C(C)(C)C)nc2C(=O)N3)cc2[nH]ncc12 [Example 66]
15 | 1340 | 311 | Cn1[nH]c2ccc(C(=O)N3CCC4(CC3)Cc3cn(C(C)(C)C)nc3C(=O)N4)cc2c1=O [Example 67]
16 | 221 | 68 | COc1cccc2cc(C(=O)N3CCC4(CC3)Cc3cn(C(C)(C)C)nc3C(=O)N4)cnc12 [Example 68]
17 | 185 | 28 | CNc1ccc2cc(C(=O)N3CCC4(CC3)Cc3cn(C(C)(C)C)nc3C(=O)N4)ccc2n1 [Example 69]
18 | 5.8 | 2.4 | COc1cccc2ccc(C(=O)N3CCC4(CC3)Cc3cn(C(C)(C)C)nc3C(=O)N4)cc12 [Example 70]
19 | 28 | 5.9 | CC(C)(C)n1cc2c(n1)C(=O)NC1(CCN(C(=O)c3ccc4ccc(N)nc4c3)CC1)C2 [Example 72]
20 | 48 | 5.5 | CNc1cc2cc(C(=O)N3CCC4(CC3)Cc3cn(C(C)(C)C)nc3C(=O)N4)ccc2cn1 [Example 73]

Row | IC50 [1] [nM] | IC50 [2] [nM] | SMILES
21 | 18 | 3.2 | COc1cccc2ncc(C(=O)N3CCC4(CC3)Cc3cn(C(C)(C)C)nc3C(=O)N4)cc12 [Example 74]
22 | 79 | 11 | CNc1nc2cc(C(=O)N3CCC4(CC3)Cc3cn(C(C)(C)C)nc3C(=O)N4)ccc2[nH]1 [Example 75]
23 | 80 | 8.4 | CC(C)(C)n1cc2c(n1)C(=O)NC1(CCN(C(=O)c3ccc4[nH]c(N)nc4c3)CC1)C2 [Example 77]
24 | 155 | 34 | CC(C)(C)n1cc2c(n1)C(=O)NC1(CCN(C(=O)c3cc(C(F)(F)F)c4[nH]ncc4c3)CC1)C2 [Example 78]
25 | 216 | 18 | COc1n[nH]c2cc(C(=O)N3CCC4(CC3)Cc3cn(C(C)(C)C)nc3C(=O)N4)ccc12 [Example 79]
26 | 46 | 5.3 | COc1n[nH]c2ccc(C(=O)N3CCC4(CC3)Cc3cn(C(C)(C)C)nc3C(=O)N4)cc12 [Example 81]
27 | 163 | 19 | CC(C)(C)n1cc2c(n1)C(=O)NC1(CCN(C(=O)c3ccc4c(C(F)(F)F)n[nH]c4c3)CC1)C2 [Example 83]
28 | 194 | 33 | Cn1[nH]c2cc(C(=O)N3CCC4(CC3)Cc3cn(C(C)(C)C)nc3C(=O)N4)ccc2c1=O [Example 84]
29 | 17 | 2.1 | COc1cc(C(=O)N2CCC3(CC2)Cc2cn(C(C)(C)C)nc2C(=O)N3)cc2c(C)n[nH]c12 [Example 87]
30 | 343 | 44 | CNc1n[nH]c2cc(C(=O)N3CCC4(CC3)Cc3cn(C(C)(C)C)nc3C(=O)N4)ccc12 [Example 89]
31 | 209 | 31 | COc1cc2ccc(C(=O)N3CCC4(CC3)Cc3cn(C(C)(C)C)nc3C(=O)N4)cc2cn1 [Example 90]
32 | 240 | 51 | CNc1nccc2cc(C(=O)N3CCC4(CC3)Cc3cn(C(C)(C)C)nc3C(=O)N4)ccc12 [Example 91]
33 | 244 | 55 | COc1nccc2cc(C(=O)N3CCC4(CC3)Cc3cn(C(C)(C)C)nc3C(=O)N4)ccc12 [Example 92]
34 | 65 | 8.6 | CNc1n[nH]c2ccc(C(=O)N3CCC4(CC3)Cc3cn(C(C)(C)C)nc3C(=O)N4)cc12 [Example 93]
35 | 130 | 23 | CC(C)(C)n1cc2c(n1)C(=O)NC1(CCN(C(=O)c3ccc4cc(N)ncc4c3)CC1)C2 [Example 94]
36 | 105 | 9.2 | CNc1cc2ccc(C(=O)N3CCC4(CC3)Cc3cn(C(C)(C)C)nc3C(=O)N4)cc2cn1 [Example 95]
37 | 62 | 7.1 | CC(C)(C)n1cc2c(n1)C(=O)NC1(CCN(C(=O)c3cnc4[nH]cc(Cl)c4c3)CC1)C2 [Example 96]
38 | 23 | 5.6 | COc1cc(C(=O)N2CCC3(CC2)Cc2cn(C(C)(C)C)nc2C(=O)N3)cc2cn[nH]c12 [Example 99, 2′-tert-butyl-1-(7-methoxy-1H-indazole-5-carbonyl)-4′,6′-dihydrospiro[piperidine-4,5′-pyrazolo[3,4-c]pyridin]-7′(2′H)-one]
39 | 62 | 21 | CC(C)(C)n1cc2c(n1)C(=O)NC1(CCN(C(=O)c3ccc4ccnc(N)c4c3)CC1)C2 [Example 100, 1-(1-aminoisoquinoline-7-carbonyl)-2′-tert-butyl-4′,6′-dihydrospiro[piperidine-4,5′-pyrazolo[3,4-c]pyridin]-7′(2′H)-one]
